SMILES strings stand for the structures.

T1 sequence (P25774 115-331): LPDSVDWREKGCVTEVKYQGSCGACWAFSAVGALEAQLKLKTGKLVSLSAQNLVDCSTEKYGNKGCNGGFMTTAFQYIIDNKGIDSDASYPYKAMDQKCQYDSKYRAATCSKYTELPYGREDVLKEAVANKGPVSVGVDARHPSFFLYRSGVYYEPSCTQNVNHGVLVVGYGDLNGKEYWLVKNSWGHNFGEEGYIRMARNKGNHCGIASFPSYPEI

The first assay has as its target T1, Human CatS (Homo sapiens, UniProt P25774).
T1 construct: made in house; host or cells: Sf9 insect cells (baculovirus vector pFB+HT)
Nature of the assay: CatS inhibition of hydrolysis of fluorescent substrate Z-Val-Val-Arg-AFC. It counts as biochemical.
Details: not given
The method, then: Human CatS was cloned into pFB+HT (from Stratagene clone), expressed in Sf9 cells, and purified over a Ni column. Fractions were concentrated and activated at pH 4.0 for 6 hr and then purified over a thiopropylsepharose column and eluted with 1×TBS, 500 mM NaCl, 1 mM EDTA, 25 mM DTT pH 7.6. Glycerol (50%) was added in a 1:1 (vol/vol) ratio (25% glycerol final) and protein was stored at −80° C. in 5 μL aliquots. […] The increase in fluorescence over time was monitored using λexcitation=400 nm and λemission=505 nm.
In equation 1, v is the initial rate measured in the presence of [I]0, the inhibitor concentration, using an enzyme concentration [E]0. v0 is the initial rate measured in the absence of inhibitor.
The molecule `COc1ccc(CNC(=O)c2cccc(-c3cc(-c4nn(CCCN5CCCC5)c5c4CN(S(C)(=O)=O)CC5)ccc3Cl)c2)cc1` [Example 15, 2′-Chloro-5′-[5-methanesulfonyl-1-(3-pyrrolidin-1-yl-propyl)-4,5,6,7-tetrahydro-1H-pyrazolo[4,3-c]pyridin-3-yl]-biphenyl-3-carboxylic acid 4-methoxy-benzylamide] registered a Ki of 450 nM. As to `CS(=O)(=O)N1CCc2c(c(-c3ccc(Cl)c(-c4cccc(C(=O)NCc5cc6ccccc6[nH]5)c4)c3)nn2CCCN2CCCC2)C1` [Example 13, 2′-Chloro-5′-[5-methanesulfonyl-1-(3-pyrrolidin-1-yl-propyl)-4,5,6,7-tetrahydro-1H-pyrazolo[4,3-c]pyridin-3-yl]-biphenyl-3-carboxylic acid (1H-indol-2-ylmethyl)-amide], the Ki worked out at 330 nM.

Staying with this assay, now noted: apparent Ki, Morrison equation fit of initial rates; 10 μM Z-Val-Val-Arg-AFC, pH 5.0, 1.5 nM CatS; read-out: CatS Ki^app.
`COc1ccc(NCCNC(=O)c2cccc(-c3cc(-c4nn(CCCN5CCCC5)c5c4CN(S(C)(=O)=O)CC5)ccc3Cl)c2)cn1` [Example 6, 2′-Chloro-5′-[5-methanesulfonyl-1-(3-pyrrolidin-1-yl-propyl)-4,5,6,7-tetrahydro-1H-pyrazolo[4,3-c]pyridin-3-yl]-biphenyl-3-carboxylic acid [2-(6-methoxy-pyridin-3-ylamino)-ethyl]-amide]: the Ki is 317 nM. Same read-out and setting: then `Cc1ccc2[nH]c(C(C)NC(=O)c3cccc(-c4cc(-c5nn(CCCN6CCC(N7CCCC7=O)CC6)c6c5CN(S(C)(=O)=O)CC6)ccc4Cl)c3)nc2c1` (centres unmarked) [Example 35, 2′-Chloro-5′-(5-methanesulfonyl-1-{3-[4-(2-oxo-pyrrolidin-1-yl)-piperidin-1-yl]-propyl}-4,5,6,7-tetrahydro-1H-pyrazolo[4,3-c]pyridin-3-yl)-biphenyl-3-carboxylic acid [1-(5-methyl-1H-benzoimidazol-2-yl)-ethyl]-amide], with 123 nM.

As to `CC(NC(=O)c1cccc(-c2cc(-c3nn(CCCN4CCCC4)c4c3CN(S(C)(=O)=O)CC4)ccc2Cl)c1)c1nc2ccccc2[nH]1` (centres unmarked) [Example 18, 2′-Chloro-5′-[5-methanesulfonyl-1-(3-pyrrolidin-1-yl-propyl)-4,5,6,7-tetrahydro-1H-pyrazolo[4,3-c]pyridin-3-yl]-biphenyl-3-carboxylic acid [1-(1H-benzoimidazol-2-yl)-ethyl]-amide], the Ki came out at 22.6 nM.

`CS(=O)(=O)N1CCc2c(c(-c3ccc(Cl)c(-c4cccc(C(=O)NCc5ncco5)c4)c3)nn2CCCN2CCC(N3CCCC3=O)CC2)C1` [Example 32, 2′-Chloro-5′-(5-methanesulfonyl-1-{3-[4-(2-oxo-pyrrolidin-1-yl)-piperidin-1-yl]-propyl}-4,5,6,7-tetrahydro-1H-pyrazolo[4,3-c]pyridin-3-yl)-biphenyl-3-carboxylic acid (oxazol-2-ylmethyl)-amide]: the Ki worked out at 264 nM.

Turning to `CN(C)S(=O)(=O)c1cccc2c1N(CCNC(=O)c1cccc(-c3cc(-c4nn(CCCN5CCC(O)C5)c5c4CNCC5)ccc3Cl)c1)CC2` (centres unmarked) [Example 45, 2′-Chloro-5′-{1-[3-(3-hydroxy-pyrrolidin-1-yl)-propyl]-4,5,6,7-tetrahydro-1H-pyrazolo[4,3-c]pyridin-3-yl}-biphenyl-3-carboxylic acid [2-(7-dimethylsulfamoyl-2,3-dihydro-indol-1-yl)-ethyl]-amide], the Ki amounted to 225 nM. Turning to `CC(=O)N1CCc2c(c(-c3ccc(Cl)c(-c4cccc(C(=O)N[C@@H](C)CN5CCc6cc(F)ccc65)c4)c3)nn2CCCN2CCCC2)C1` [Example 36, (S)-5′-[5-Acetyl-1-(3-pyrrolidin-1-yl-propyl)-4,5,6,7-tetrahydro-1H-pyrazolo[4,3-c]pyridin-3-yl]-2′-chloro-biphenyl-3-carboxylic acid [2-(5-fluoro-2,3-dihydro-indol-1-yl)-1-methyl-ethyl]-amide], the Ki came to 736 nM.

With `Cc1ccc(NCCNC(=O)c2cccc(-c3cc(-c4nn(CCCN5CCCC5)c5c4CN(S(C)(=O)=O)CC5)ccc3Cl)c2)cc1` [Example 2, 2′-Chloro-5′-[5-methanesulfonyl-1-(3-pyrrolidin-1-yl-propyl)-4,5,6,7-tetrahydro-1H-pyrazolo[4,3-c]pyridin-3-yl]-biphenyl-3-carboxylic acid (2-p-tolylamino-ethyl)-amide], the Ki amounted to 345 nM.

For `Cc1ccc2[nH]c(C(C)NC(=O)c3cccc(-c4cc(-c5nn(CCCN6CCCC6)c6c5CN(S(C)(=O)=O)CC6)ccc4Cl)c3)nc2c1` (centres unmarked) [Example 16, 2′-Chloro-5′-[5-methanesulfonyl-1-(3-pyrrolidin-1-yl-propyl)-4,5,6,7-tetrahydro-1H-pyrazolo[4,3-c]pyridin-3-yl]-biphenyl-3-carboxylic acid [1-(5-methyl-1H-benzoimidazol-2-yl)-ethyl]-amide], the Ki came out at 24 nM. In the case of `COc1ccc(NCCNC(=O)c2cccc(-c3cc(-c4nn(CCCN5CCC(N6CCCC6=O)CC5)c5c4CN(S(C)(=O)=O)CC5)ccc3Cl)c2)cc1` [Example 31, 2′-Chloro-5′-(5-methanesulfonyl-1-{3-[4-(2-oxo-pyrrolidin-1-yl)-piperidin-1-yl]-propyl}-4,5,6,7-tetrahydro-1H-pyrazolo[4,3-c]pyridin-3-yl)-biphenyl-3-carboxylic acid [2-(4-methoxy-phenylamino)-ethyl]-amide], the Ki came out at 27.3 nM. For the molecule `CS(=O)(=O)N1CCc2c(c(-c3ccc(Cl)c(-c4cccc(C(=O)NCc5nc6ccccc6s5)c4)c3)nn2CCCN2CCC(N3CCCC3=O)CC2)C1` [Example 34, 2′-Chloro-5′-(5-methanesulfonyl-1-{3-[4-(2-oxo-pyrrolidin-1-yl)-piperidin-1-yl]-propyl}-4,5,6,7-tetrahydro-1H-pyrazolo[4,3-c]pyridin-3-yl)-biphenyl-3-carboxylic acid (benzothiazol-2-ylmethyl)-amide], the Ki came to 72.3 nM.

On to `CS(=O)(=O)N1CCc2c(c(-c3ccc(Cl)c(-c4cccc(C(=O)NCc5ncco5)c4)c3)nn2CCCN2CCCC2)C1` [Example 12, 2′-Chloro-5′-[5-methanesulfonyl-1-(3-pyrrolidin-1-yl-propyl)-4,5,6,7-tetrahydro-1H-pyrazolo[4,3-c]pyridin-3-yl]-biphenyl-3-carboxylic acid (oxazol-2-ylmethyl)-amide], for which the Ki is 240 nM. Take `CS(=O)(=O)N1CCc2c(c(-c3ccc(Cl)c(-c4cccc(C(=O)NCc5cccs5)c4)c3)nn2CCCN2CCCC2)C1` [Example 14, 2′-Chloro-5′-[5-methanesulfonyl-1-(3-pyrrolidin-1-yl-propyl)-4,5,6,7-tetrahydro-1H-pyrazolo[4,3-c]pyridin-3-yl]-biphenyl-3-carboxylic acid (thiophen-2-ylmethyl)-amide]: the Ki turned out to be 350 nM.

For `CS(=O)(=O)N1CCc2c(c(-c3ccc(Cl)c(-c4cccc(C(=O)NCc5nc6cc(Cl)ccc6[nH]5)c4)c3)nn2CCCN2CCCC2)C1` [Example 21, 2′-Chloro-5′-[5-methanesulfonyl-1-(3-pyrrolidin-1-yl-propyl)-4,5,6,7-tetrahydro-1H-pyrazolo[4,3-c]pyridin-3-yl]-biphenyl-3-carboxylic acid (5-chloro-1H-benzoimidazol-2-ylmethyl)-amide], the Ki was 70.3 nM.

As for `COc1ccc(NCCNC(=O)c2cccc(-c3cc(-c4nn(CCCN5CCC(O)C5)c5c4CNCC5)ccc3Cl)c2)cc1` (centres unmarked) [Example 44, 2′-Chloro-5′-{1-[3-(3-hydroxy-pyrrolidin-1-yl)-propyl]-4,5,6,7-tetrahydro-1H-pyrazolo[4,3-c]pyridin-3-yl}-biphenyl-3-carboxylic acid [2-(4-methoxy-phenylamino)-ethyl]-amide], the Ki is 30.4 nM. As to `CC(=O)N1CCc2c(c(-c3ccc(Cl)c(-c4cccc(C(=O)NCc5nc6ccccc6s5)c4)c3)nn2CCCN2CCCC2)C1` [Example 38, 5′-[5-Acetyl-1-(3-pyrrolidin-1-yl-propyl)-4,5,6,7-tetrahydro-1H-pyrazolo[4,3-c]pyridin-3-yl]-2′-chloro-biphenyl-3-carboxylic acid (benzothiazol-2-ylmethyl)-amide], the Ki is 231 nM.

For `CS(=O)(=O)N1CCc2c(c(-c3ccc(Cl)c(-c4cccc(C(=O)NCCN5CCc6cc(F)ccc65)c4)c3)nn2CCCN2CCCC2)C1` [Example 8, 2′-Chloro-5′-[5-methanesulfonyl-1-(3-pyrrolidin-1-yl-propyl)-4,5,6,7-tetrahydro-1H-pyrazolo[4,3-c]pyridin-3-yl]-biphenyl-3-carboxylic acid [2-(5-fluoro-2,3-dihydro-indol-1-yl)-ethyl]-amide], the Ki was determined as 237 nM. For `CS(=O)(=O)N1CCc2c(c(-c3ccc(Cl)c(-c4cccc(C(=O)NCc5nccs5)c4)c3)nn2CCCN2CCCC2)C1` [Example 19, 2′-Chloro-5′-[5-methanesulfonyl-1-(3-pyrrolidin-1-yl-propyl)-4,5,6,7-tetrahydro-1H-pyrazolo[4,3-c]pyridin-3-yl]-biphenyl-3-carboxylic acid (thiazol-2-ylmethyl)-amide], the Ki amounted to 269 nM.

As for `CS(=O)(=O)N1CCc2c(c(-c3ccc(Cl)c(-c4cccc(C(=O)NCc5ncco5)c4)c3)nn2CCCN2CCC(O)C2)C1` (centres unmarked) [Example 29, 2′-Chloro-5′-{1-[3-(3-hydroxy-pyrrolidin-1-yl)-propyl]-5-methanesulfonyl-4,5,6,7-tetrahydro-1H-pyrazolo[4,3-c]pyridin-3-yl}-biphenyl-3-carboxylic acid (oxazol-2-ylmethyl)-amide], the Ki was determined as 477 nM.

These data come from patent US20080207683A1, “BIARYL-S[…]-PYRAZOLO-PYRIDINE MODULATORS OF CATHEPSIN S” (priority 2007, published 2008).
